Test results from publication PMC9106035, “Synthesis, X-ray Structure and Biological Studies of New Self-Assembled Cu(II) Complexes Derived from s-Triazine Schiff Base Ligand” (Molecules, 2022).

Columns and labels:
[1] = test system: C. albicans (RCMB 005003(1) ATCC 10231); assay: Minimum Inhibitory Concentration (MIC); format: cell-based
Description: (§1) Method S2: Antimi crobial studies a) Tested pathogenic microbes
(§2) The antibacterial a ctivity of the studied ligands and their Cu(II) complexes were evaluated against two Gram positive bacteria ((S. aureus (ATCC 25923) and B. […]
(§3) 0.5). In case of fungi A. fumigatus (RCMB 002008) and C. albicans (RCMB 005003(1) ATCC 10231), the used medium in antagonistic activity against tested fungi is Potato Dextrose Agar, where Fluconazole was used standard antifungal agent. […]
(§4) c) Minimum Inhibitory Concentration (MIC)
(§5) Different dilutions of the compounds are inoculat ed with tested pathogenic microbes.
(§6) After incubation period of 96 well microplate, the results are meas ured using microplate reader. To determine at what level the MIC endpoint is established; subculture of test samples at different concentrati ons occurred in nutrient agar plates.

[2] = test system: A. fumigatus (RCMB 002008); assay: Minimum Inhibitory Concentration (MIC); format: cell-based
Description: as §1, §2, §3, §4, §5, §6

## CC(=NNc1nc(N2CCOCC2)nc(N2CCOCC2)n1)c1ccccc1[O-].CC(=O)[O-].[Cu+2] [Complex 2, [Cu(DMOT)(CH3COO)]]
[1]
  MIC: 5000 µg/mL
[2]
  MIC: 625 µg/mL
